Biological target: human histamine 3 receptor (hH3R) (Homo sapiens (Human), UniProt Q9Y5N1)
Test: Binding affinity of human histamine 3 receptor (hH3R), [3H] labeled N-α-methylhistamine displacement
Details: hH3R-overexpressed cell membrane, [3H] N-α-methylhistamine
Protocol: 10 μL of the prepared compound solution was allocated in each well of a 96-well plate, and then 10 μL of 200 μM (R)(−)-α-methylhistamine (RaMH) diluted with analysis buffer and 1% of DMSO were transferred to each well to calculate non-specific binding and total binding degree. 15 μg of human histamine 3 receptor-overexpressed cell membrane (PerkinElmer) was diluted with 180 μL of analysis buffer solution (50 mM tris-HCl pH 7.4, 5 mM MgCl2), and that was transferred to each well. [^3H] labeled Na-methylhistamine (PerkinElmer) was diluted into […], 10 μL of that was added to each well, and then it was kept in a 27° C. incubator for 30 minutes. After the reaction, 200 μL of the mixture was transferred to a glass fiber plate in which 0.5% polyethylene amine was presoaked, and then non-binding [^3H] labeled Na-methylhistamine was removed in vacuum. After 5 times washing with 200 μL of washing buffer solution (50 mM tris-HCl, pH 7.4), the plate was dried in a 37° C. oven for 18 hours. 100 μL of betascint cocktail solution was added to each well, and after 1 hour CPM of [^3H] labeled N-α-methylhistamine was measured by using Wallac beta-counter TriLux. The binding affinity (IC50) of the human histamine 3 receptor for the present invention was analyzed by an Excel program, and the results of analysis are shown in Table 2.

Chain of human histamine 3 receptor (hH3R) (Q9Y5N1 whole entry): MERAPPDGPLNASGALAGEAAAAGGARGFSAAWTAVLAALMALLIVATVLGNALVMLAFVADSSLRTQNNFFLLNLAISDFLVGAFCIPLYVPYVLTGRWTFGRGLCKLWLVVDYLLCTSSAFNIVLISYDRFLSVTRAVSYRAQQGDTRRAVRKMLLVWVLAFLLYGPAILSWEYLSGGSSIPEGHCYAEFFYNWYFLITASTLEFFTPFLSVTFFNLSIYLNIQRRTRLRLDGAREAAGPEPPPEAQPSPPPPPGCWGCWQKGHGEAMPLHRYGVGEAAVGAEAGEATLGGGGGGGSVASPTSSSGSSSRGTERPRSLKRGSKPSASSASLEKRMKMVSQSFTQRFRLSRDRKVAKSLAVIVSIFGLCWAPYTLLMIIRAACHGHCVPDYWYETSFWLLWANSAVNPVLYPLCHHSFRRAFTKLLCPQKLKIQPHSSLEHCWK

Compound | IC50 [µM]
CNC1CN(c2nc3ncc(Cl)cc3c3nc(C)nn23)C1 [Compound 33, 1-(9-Chloro-2-methylpyrido[3,2-e][1,2,4]triazolo[1,5-c]pyrimidin-5-yl)-N-methylazetidin-3-amine] | > 100
CNC1CN(c2nc3ncc(N)cc3n3cnnc23)C1 [Compound 112, 4-(3-(methylamino)azetidin-1-yl)pyrido[2,3-e][1,2,4]triazolo[4,3-a]pyrazin-8-amine] | > 100
CNC1CN(C2=Nc3ncc(Br)cc3N3C[C@H](C)N=C23)C1 [Compound 105, (S)-1-(8-bromo-2-methyl-1,2-dihydroimidazo[1,2-a]pyrido[2,3-e]pyrazin-4-yl)-N-methylazetidin-3-amine] | > 100
CNC1CN(c2nc3nc(C)c(Br)cc3n3cnnc23)C1 [Compound 99, 1-(8-bromo-7-methylpyrido[2,3-e][1,2,4]triazolo[4,3-a]pyrazin-4-yl)-N-methylazetidin-3-amine] | > 100
CNC1CN(c2nc3ncc(Cl)cc3c3cn(C)nc23)C1 [Compound 44, 1-(8-Chloro-2-methyl-2H-pyrazolo[3,4-c][1,8]naphthylidine-4-yl)-N-methylazetidin-3-amine] | > 100
CNC1CN(c2nc3ncc(Br)cc3n3cc(C)nc23)C1 [Compound 108, 1-(8-bromo-2-methylimidazo[1,2-a]pyrido[2,3-e]pyrazin-4-yl)-N-methylazetidin-3-amine] | > 100
Clc1cnc2nc(N3CC4CCCNC4C3)c3nncn3c2c1 (stereo not shown) [Compound 82, 8-Chloro-4-(hexahydro-1H-pyrrolo[3,4-b]pyridin-6(2H)-yl)pyrido[2,3-e][1,2,4]triazolo[4,3-a]pyrazine] | > 100
OCCNc1nc2ncc(Cl)cc2n2cnnc12 [Compound 87, 2-((8-Chloropyrido[2,3-e][1,2,4]triazolo[4,3-a]pyrazin-4-yl)amino)ethanol] | > 100
CCc1cnc2nc(N3CC(NC)C3)c3nncn3c2c1 [Compound 56, 1-(8-Ethylpyrido[2,3-e][1,2,4]triazolo[4,3-a]pyrazin-4-yl)-N-methylazetidin-3-amine] | > 100
CN(C)C1CN(c2nc3ncc(Br)cc3n3cnnc23)C1 [Compound 85, 1-(8-Bromopyrido[2,3-e][1,2,4]triazolo[4,3-a]pyrazin-4-yl)-N,N-dimethylazetidin-3-amine] | > 100
CCc1nc2c3cc(Cl)cnc3nc(N3CCN(C)CC3)n2n1 [Compound 41, 9-Chloro-2-ethyl-5-(4-methylpiperazin-1-yl)pyrido[3,2-e][1,2,4]triazolo[1,5-c]pyrimidine] | > 100
COCc1nc2c3cc(Cl)cnc3nc(N3CCN(C)CC3)n2n1 [Compound 40, 9-Chloro-2-(methoxymethyl)-5-(4-methylpiperazin-1-yl)pyrido[3,2-e][1,2,4]triazolo[1,5-c]pyrimidine] | > 100
Clc1cnc2nc(N3CCNCC3)n3ncnc3c2c1 [Compound 37, 9-Chloro-5-(piperazin-1-yl)pyrido[3,2-e][1,2,4]triazolo[1,5-c]pyrimidine] | > 100
CN1CCN(c2nc3cc(Cl)cnc3n3cnnc23)CC1 [Compound 5, 3-Chloro-6-(4-methylpiperazin-1-yl)pyrido[3,2-e][1,2,4]triazolo[4,3-a]pyrazine] | > 100
CN[C@@H]1CCN(c2nc3ncc(Cl)cc3n3cnnc23)C1 [Compound 10, (R)-1-(8-chloropyrido[2,3-e][1,2,4]triazolo[4,3-a]pyrazin-4-yl)-N-methylpyrrolidin-3-amine] | > 100
NC1CN(c2nc3ncc(Cl)cc3n3cnnc23)C1 [Compound 8, 1-(8-Chloropyrido[2,3-e][1,2,4]triazolo[4,3-a]pyrazin-4-yl)azetidin-3-amine] | > 100
CNC1CN(c2nc3ncc(O)cc3n3cnnc23)C1 [Compound 57, 4-(3-(Methylamino)azetidin-1-yl)pyrido[2,3-e][1,2,4]triazolo[4,3-a]pyrazin-8-ol] | > 100
CNC1CN(C2=Nc3ncc(Br)cc3N3C[C@@H](C)N=C23)C1 [Compound 106, (R)-1-(8-bromo-2-methyl-1,2-dihydroimidazo[1,2-a]pyrido[2,3-e]pyrazin-4-yl)-N-methylazetidin-3-amine] | > 100
CC1(N)CN(c2nc3ncc(Br)cc3n3cnnc23)C1 [Compound 72, 1-(8-Bromopyrido[2,3-e][1,2,4]triazolo[4,3-a]pyrazin-4-yl)-3-methylazetidin-3-amine] | > 100
Clc1cnc2nc(N3CCCNCC3)c3nncn3c2c1 [Compound 79, 8-Chloro-4-(1,4-diazepan-1-yl)pyrido[2,3-e][1,2,4]triazolo[4,3-a]pyrazine] | > 100

Compound | IC50 [µM]
CNC1CN(c2nc3ncc(-c4ccccc4)cc3n3cnnc23)C1 [Compound 113, N-methyl-1-(8-phenylpyrido[2,3-e][1,2,4]triazolo[4,3-a]pyrazin-4-yl)azetidin-3-amine] | > 100
CN[C@@H]1CCN(c2nc3cc(Cl)cnc3n3cnnc23)C1 [Compound 11, (R)-1-(3-chloropyrido[3,2-e][1,2,4]triazolo[4,3-a]pyrazin-6-yl)-N-methylpyrrolidin-3-amine] | > 100
Cc1nnc2c(N3CCN(C)CC3)nc3ncc(Cl)cc3n12 [Compound 14, 8-Chloro-1-methyl-4-(4-methylpiperazin-1-yl)pyrido[2,3-e][1,2,4]triazolo[4,3-a]pyrazine] | > 100
CN1CCN(c2nc3ncccc3n3cnnc23)CC1 [Compound 3, 4-(4-Methylpiperazin-1-yl)pyrido[2,3-e][1,2,4]triazolo[4,3-a]pyrazine] | > 100
CNC1(C)CN(c2nc3ncc(Br)cc3n3cnnc23)C1 [Compound 73, 1-(8-Bromopyrido[2,3-e][1,2,4]triazolo[4,3-a]pyrazin-4-yl)-N,3-dimethylazetidin-3-amine] | > 100
CN(C)[C@@H]1CCN(c2nc3ncc(Cl)cc3n3cnnc23)C1 [Compound 9, (R)-1-(8-chloropyrido[2,3-e][1,2,4]triazolo[4,3-a]pyrazin-4-yl)-N,N-dimethylpyrrolidin-3-amine] | > 100
Cc1cnc2c(c1)nc(N1CCN(C)CC1)c1nncn12 [Compound 1, 3-Methyl-6-(4-methylpiperazin-1-yl)pyrido[3,2-e][1,2,4]triazolo[4,3-a]pyrazine] | > 100
CNC1CN(c2nc3ncc(Br)cc3c3cc(C)nn23)C1 [Compound 109, 1-(9-bromo-2-methylpyrazolo[1,5-c]pyrido[3,2-e]pyrimidin-5-yl)-N-methylazetidin-3-amine] | > 100
CNC1CN(c2nc3ncc(Cl)cc3c3ncnn23)C1 [Compound 36, 1-(9-Chloropyrido[3,2-e][1,2,4]triazolo[1,5-c]pyrimidin-5-yl)-N-methylazetidin-3-amine] | > 100
COc1nc2nc(N3CCNCC3)c3nncn3c2cc1Cl [Compound 61, 8-Chloro-7-methoxy-4-(piperazin-1-yl)pyrido[2,3-e][1,2,4]triazolo[4,3-a]pyrazine] | > 100
CC1CN(c2nc3ncc(Cl)cc3n3cnnc23)CC(C)N1C (stereo not shown) [Compound 22, 8-Chloro-4-(3,4,5-trimethylpiperazin-1-yl)pyrido[2,3-e][1,2,4]triazolo[4,3-a]pyrazine] | > 100
CNC1CN(c2nc3ncc(-c4ccco4)cc3n3cnnc23)C1 [Compound 114, 1-(8-(furan-2-yl)pyrido[2,3-e][1,2,4]triazolo[4,3-a]pyrazin-4-yl)-N-methylazetidin-3-amine] | > 100
Cc1nc2c(N3CC(N(C)C(=O)OC(C)(C)C)C3)nc3ncc(Cl)cc3c2o1 [Compound 90, tert-Butyl (1-(8-chloro-2-methyloxazolo[4,5-c][1,8]naphthylidine-4-yl)azetidin-3-yl)(methyl)carbamate] | > 100
CN1CCN(c2nc3cccnc3n3cnnc23)CC1 [Compound 6, 6-(4-Methylpiperazin-1-yl)pyrido[3,2-e][1,2,4]triazolo[4,3-a]pyrazine] | > 100
CN[C@@H]1CCN(c2nc3ncc(Br)cc3n3cnnc23)C1 [Compound 81, (R)-1-(8-bromopyrido[2,3-e][1,2,4]triazolo[4,3-a]pyrazin-4-yl)-N-methylpyrrolidin-3-amine] | > 100
CN(C)C1CN(c2nc3ncc(Cl)cc3n3cnnc23)C1 [Compound 84, 1-(8-Chloropyrido[2,3-e][1,2,4]triazolo[4,3-a]pyrazin-4-yl)-N,N-dimethylazetidin-3-amine] | > 100
Clc1cnc2nc(N3CCN(C4CC4)CC3)c3nncn3c2c1 [Compound 76, 8-Chloro-4-(4-cyclopropylpiperazin-1-yl)pyrido[2,3-e][1,2,4]triazolo[4,3-a]pyrazine] | > 100
CNC1CN(c2nc3ncc(Br)cc3n3cccc23)C1 [Compound 115, 1-(2-bromopyrido[2,3-e]pyrrolo[1,2-a]pyrazin-6-yl)-N-methylazetidin-3-amine] | > 100
N[C@@H]1CCN(c2nc3ncc(Cl)cc3n3cnnc23)C1 [Compound 30, (R)-1-(8-chloropyrido[2,3-e][1,2,4]triazolo[4,3-a]pyrazin-4-yl)pyrrolidin-3-amine] | > 100
CN1CC2CN(c3nc4ncc(Cl)cc4n4cnnc34)CC2C1 (stereo not shown) [Compound 70, 8-Chloro-4-(5-methylhexahydropyrrolo[3,4-c]pyrrole-2(1H)-yl)pyrido[2,3-e][1,2,4]triazolo[4,3-a]pyrazine] | > 100

— patent US9586959B2, “Substituted tricyclic heterocycles as histamine 4 receptor inhibitors” (C&C RESEARCH LABORATORIES, priority 2011, dated 2017)
